Measurements taken from ChEMBL document CHEMBL5291721, “A preclinical secondary pharmacology resource illuminates target-adverse drug reaction associations of marketed drugs” (Nat Commun, 2023).

Tests used:
[1] = molecular target: Delta-type opioid receptor (Homo sapiens, UniProt P41143)
[2] = molecular target: T1, 5-hydroxytryptamine receptor 3A (Homo sapiens, UniProt P46098); assay type: functional
T1 sequence (P46098 whole entry): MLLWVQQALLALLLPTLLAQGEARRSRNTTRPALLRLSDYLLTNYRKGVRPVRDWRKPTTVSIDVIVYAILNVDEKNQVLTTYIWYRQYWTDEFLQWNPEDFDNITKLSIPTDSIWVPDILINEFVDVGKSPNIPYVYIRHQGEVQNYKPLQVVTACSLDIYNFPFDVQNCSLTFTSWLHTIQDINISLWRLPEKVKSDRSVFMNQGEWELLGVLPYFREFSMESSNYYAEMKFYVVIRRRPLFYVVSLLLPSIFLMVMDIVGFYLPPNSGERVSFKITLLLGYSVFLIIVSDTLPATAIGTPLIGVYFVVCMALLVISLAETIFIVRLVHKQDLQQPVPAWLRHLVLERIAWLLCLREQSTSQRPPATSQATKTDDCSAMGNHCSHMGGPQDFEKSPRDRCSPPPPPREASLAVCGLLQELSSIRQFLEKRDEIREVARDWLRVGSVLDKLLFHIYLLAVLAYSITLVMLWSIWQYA

[3] = molecular target: Voltage-dependent L-type calcium channel subunit alpha-1C (Rattus norvegicus, UniProt P22002); assay type: functional
Estrogen receptor = molecular target: T2, Estrogen receptor (Homo sapiens, UniProt P03372)
T2 sequence (P03372 whole entry): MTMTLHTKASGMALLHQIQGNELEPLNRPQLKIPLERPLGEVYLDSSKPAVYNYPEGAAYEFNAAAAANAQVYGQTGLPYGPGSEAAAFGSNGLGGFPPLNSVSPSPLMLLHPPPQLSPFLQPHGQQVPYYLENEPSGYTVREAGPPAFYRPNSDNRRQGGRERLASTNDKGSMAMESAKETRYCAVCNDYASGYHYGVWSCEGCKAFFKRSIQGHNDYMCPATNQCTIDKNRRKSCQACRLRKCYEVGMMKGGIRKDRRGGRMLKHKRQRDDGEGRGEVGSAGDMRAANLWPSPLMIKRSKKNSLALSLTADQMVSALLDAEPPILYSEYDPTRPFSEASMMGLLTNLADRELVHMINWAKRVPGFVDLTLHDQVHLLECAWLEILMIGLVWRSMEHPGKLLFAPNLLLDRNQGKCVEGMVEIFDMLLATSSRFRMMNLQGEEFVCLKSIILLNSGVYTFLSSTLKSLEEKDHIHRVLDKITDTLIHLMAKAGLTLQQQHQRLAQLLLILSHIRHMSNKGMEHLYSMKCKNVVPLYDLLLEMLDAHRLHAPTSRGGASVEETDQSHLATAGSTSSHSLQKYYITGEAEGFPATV

[4] = molecular target: T3, Type-1 angiotensin II receptor (Homo sapiens, UniProt P30556)
T3 sequence (P30556 whole entry): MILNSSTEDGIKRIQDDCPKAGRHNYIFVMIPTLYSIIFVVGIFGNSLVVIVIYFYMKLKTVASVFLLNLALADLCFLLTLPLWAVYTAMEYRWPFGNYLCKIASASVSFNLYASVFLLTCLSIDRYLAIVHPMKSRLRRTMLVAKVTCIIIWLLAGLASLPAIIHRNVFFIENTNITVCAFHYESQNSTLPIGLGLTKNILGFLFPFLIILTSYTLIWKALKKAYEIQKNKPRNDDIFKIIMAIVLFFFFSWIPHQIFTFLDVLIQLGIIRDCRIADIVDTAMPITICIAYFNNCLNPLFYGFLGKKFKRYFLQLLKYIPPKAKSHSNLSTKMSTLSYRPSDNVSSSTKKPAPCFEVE

[5] = molecular target: T4, Alpha-2A adrenergic receptor (Homo sapiens, UniProt P08913); assay type: functional, cell-based
T4 sequence (P08913 whole entry): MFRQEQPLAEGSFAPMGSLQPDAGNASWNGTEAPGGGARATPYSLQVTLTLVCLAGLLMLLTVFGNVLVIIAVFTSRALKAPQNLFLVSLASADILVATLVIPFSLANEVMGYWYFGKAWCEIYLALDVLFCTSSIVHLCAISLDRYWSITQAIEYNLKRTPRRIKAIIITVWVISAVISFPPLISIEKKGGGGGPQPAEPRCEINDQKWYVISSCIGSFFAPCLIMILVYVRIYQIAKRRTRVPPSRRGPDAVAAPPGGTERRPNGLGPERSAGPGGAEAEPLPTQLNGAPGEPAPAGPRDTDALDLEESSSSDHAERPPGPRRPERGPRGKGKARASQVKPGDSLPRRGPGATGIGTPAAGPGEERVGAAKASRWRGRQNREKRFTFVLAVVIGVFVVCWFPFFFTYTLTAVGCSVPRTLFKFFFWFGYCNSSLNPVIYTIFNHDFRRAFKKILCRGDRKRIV

[6] = molecular target: T5, 5-hydroxytryptamine receptor 2C (Homo sapiens, UniProt P28335)
T5 sequence (P28335 whole entry): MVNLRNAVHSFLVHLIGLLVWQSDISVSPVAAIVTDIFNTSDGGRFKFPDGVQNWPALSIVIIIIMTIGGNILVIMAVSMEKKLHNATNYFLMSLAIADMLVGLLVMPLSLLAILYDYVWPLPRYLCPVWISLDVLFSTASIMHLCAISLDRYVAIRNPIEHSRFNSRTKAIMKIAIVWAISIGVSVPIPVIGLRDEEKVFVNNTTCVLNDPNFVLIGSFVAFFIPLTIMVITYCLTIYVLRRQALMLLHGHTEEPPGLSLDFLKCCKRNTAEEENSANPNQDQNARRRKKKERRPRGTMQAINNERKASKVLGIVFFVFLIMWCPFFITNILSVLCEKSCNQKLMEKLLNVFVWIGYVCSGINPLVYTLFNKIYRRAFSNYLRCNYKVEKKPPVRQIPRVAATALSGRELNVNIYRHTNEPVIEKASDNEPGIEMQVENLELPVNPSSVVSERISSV
Also: assay procedure not described here.

Sequence of Voltage-dependent L-type calcium channel subunit alpha-1C (P22002 whole entry): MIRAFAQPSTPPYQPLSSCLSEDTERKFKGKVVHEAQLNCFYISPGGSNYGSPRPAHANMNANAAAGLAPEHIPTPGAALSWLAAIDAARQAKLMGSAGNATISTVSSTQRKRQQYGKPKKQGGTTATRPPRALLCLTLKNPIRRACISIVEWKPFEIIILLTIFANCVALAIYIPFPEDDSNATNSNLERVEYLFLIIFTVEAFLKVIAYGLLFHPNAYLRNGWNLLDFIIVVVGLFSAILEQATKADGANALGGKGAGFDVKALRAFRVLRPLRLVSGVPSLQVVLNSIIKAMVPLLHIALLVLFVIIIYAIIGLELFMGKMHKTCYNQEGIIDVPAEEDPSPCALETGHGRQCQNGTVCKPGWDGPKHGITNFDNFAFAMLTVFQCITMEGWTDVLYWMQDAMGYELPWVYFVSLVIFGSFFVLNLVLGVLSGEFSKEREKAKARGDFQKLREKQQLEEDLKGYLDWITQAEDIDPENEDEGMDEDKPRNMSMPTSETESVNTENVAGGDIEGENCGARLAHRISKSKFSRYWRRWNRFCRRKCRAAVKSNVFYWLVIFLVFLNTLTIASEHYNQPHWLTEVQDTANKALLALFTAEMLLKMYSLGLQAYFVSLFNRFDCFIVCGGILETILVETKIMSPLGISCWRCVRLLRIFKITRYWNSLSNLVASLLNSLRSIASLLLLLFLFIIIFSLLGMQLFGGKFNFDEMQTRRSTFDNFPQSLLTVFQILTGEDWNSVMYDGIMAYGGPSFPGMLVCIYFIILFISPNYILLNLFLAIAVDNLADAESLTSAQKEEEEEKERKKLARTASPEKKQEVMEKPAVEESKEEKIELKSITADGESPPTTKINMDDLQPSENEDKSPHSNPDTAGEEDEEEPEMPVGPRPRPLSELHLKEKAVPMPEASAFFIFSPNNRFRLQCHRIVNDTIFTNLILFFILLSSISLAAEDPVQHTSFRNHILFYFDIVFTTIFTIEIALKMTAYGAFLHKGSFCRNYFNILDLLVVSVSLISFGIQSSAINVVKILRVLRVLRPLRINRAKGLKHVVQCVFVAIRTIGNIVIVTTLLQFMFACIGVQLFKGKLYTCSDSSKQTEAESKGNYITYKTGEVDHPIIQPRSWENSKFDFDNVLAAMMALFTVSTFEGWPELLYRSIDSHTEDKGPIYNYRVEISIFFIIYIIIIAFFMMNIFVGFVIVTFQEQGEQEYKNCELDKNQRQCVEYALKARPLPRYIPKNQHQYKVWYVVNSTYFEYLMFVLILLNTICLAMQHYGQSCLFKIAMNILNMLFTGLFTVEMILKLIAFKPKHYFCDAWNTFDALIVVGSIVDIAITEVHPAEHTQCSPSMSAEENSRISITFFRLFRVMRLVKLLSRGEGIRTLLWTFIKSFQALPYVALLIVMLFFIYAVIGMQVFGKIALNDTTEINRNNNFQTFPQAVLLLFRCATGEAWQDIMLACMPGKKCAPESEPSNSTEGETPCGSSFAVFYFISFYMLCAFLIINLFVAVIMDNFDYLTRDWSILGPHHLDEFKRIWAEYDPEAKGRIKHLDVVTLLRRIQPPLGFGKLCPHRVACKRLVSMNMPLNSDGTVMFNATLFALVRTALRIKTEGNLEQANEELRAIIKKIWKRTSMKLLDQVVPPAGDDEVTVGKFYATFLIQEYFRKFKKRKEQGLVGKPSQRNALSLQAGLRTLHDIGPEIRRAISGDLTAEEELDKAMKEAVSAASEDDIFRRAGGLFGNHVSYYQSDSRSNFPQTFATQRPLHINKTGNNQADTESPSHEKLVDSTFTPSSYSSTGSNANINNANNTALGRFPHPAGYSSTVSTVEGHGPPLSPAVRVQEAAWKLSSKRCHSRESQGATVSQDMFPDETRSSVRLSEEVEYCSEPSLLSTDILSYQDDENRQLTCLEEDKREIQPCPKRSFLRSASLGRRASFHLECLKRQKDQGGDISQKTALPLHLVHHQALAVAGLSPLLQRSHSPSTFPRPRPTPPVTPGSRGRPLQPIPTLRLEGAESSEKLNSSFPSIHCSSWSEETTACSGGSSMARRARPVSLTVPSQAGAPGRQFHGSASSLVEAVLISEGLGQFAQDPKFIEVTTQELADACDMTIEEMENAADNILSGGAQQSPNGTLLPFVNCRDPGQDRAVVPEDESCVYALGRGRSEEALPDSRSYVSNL
Sequence of Delta-type opioid receptor (P41143 whole entry): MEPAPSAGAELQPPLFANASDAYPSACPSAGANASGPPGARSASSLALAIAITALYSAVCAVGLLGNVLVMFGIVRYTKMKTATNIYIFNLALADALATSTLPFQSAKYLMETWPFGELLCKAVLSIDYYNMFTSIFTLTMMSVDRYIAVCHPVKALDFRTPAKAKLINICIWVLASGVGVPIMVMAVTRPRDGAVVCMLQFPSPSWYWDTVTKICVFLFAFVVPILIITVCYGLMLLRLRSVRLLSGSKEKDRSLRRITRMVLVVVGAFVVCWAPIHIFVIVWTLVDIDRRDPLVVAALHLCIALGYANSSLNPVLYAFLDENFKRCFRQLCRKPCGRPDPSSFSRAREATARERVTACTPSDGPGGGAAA

SMILES	AC50 [1]	AC50 [2]	AC50 [3]	AC50 (Estrogen receptor)	AC50 [4]	AC50 [5]	AC50 [6]
CCNC(C)Cc1cccc(C(F)(F)F)c1 (centres undefined) [FENFLURAMINE]	> 30 µM	> 30 µM	> 10 µM	> 30 µM	> 30 µM	–	–
COC(=O)[C@H]1[C@@H](OC(=O)c2ccccc2)C[C@@H]2CC[C@H]1N2C [COCAINE]	> 30 µM	> 30 µM	> 30 µM	> 30 µM	> 30 µM	> 30 µM	> 30 µM
O=C(OCCN1CCOCC1)c1cccnc1Nc1cccc(C(F)(F)F)c1 [MORNIFLUMATE]	> 30 µM	> 30 µM	> 30 µM	> 30 µM	> 30 µM	> 30 µM	> 30 µM
COc1ccc(C(=O)NCc2ccc(OCCN(C)C)cc2)cc1OC [ITOPRIDE]	> 30 µM	> 30 µM	> 30 µM	> 30 µM	> 30 µM	> 30 µM	> 30 µM
Cc1c(C(=O)Nc2ccc(N3C[C@@H](C)O[C@@H](C)C3)nc2)cccc1-c1ccc(OC(F)(F)F)cc1 [SONIDEGIB]	> 10 µM	> 10 µM	> 10 µM	> 30 µM	> 30 µM	–	> 30 µM
CCCCCCCCCCCC[N+](C)(C)CCOc1ccccc1 [DOMIPHEN]	> 30 µM	> 30 µM	> 30 µM	5 µM	14 µM	13 µM	1.1 µM
C#CCN(C)[C@H](C)Cc1ccccc1 [SELEGILINE]	> 30 µM	> 30 µM	> 10 µM	> 10 µM	> 10 µM	> 10 µM	> 30 µM
CN1CCc2cccc3c2[C@H]1Cc1ccc(O)c(O)c1-3 [APOMORPHINE]	> 30 µM	–	> 10 µM	1.47 µM	> 30 µM	> 10 µM	7.3 µM
CCC1(C2=CCCCCC2)C(=O)NC(=O)NC1=O [HEPTABARBITAL]	> 30 µM	> 30 µM	> 10 µM	> 10 µM	> 10 µM	> 10 µM	> 30 µM
COc1c(C)c2c(c(O)c1C/C=C(\C)CCC(=O)OCCN1CCOCC1)C(=O)OC2 [MYCOPHENOLATE MOFETIL]	> 30 µM	> 30 µM	> 30 µM	> 30 µM	> 30 µM	> 30 µM	> 30 µM
CC[C@]1(O)C[C@@H]2CN(CCc3c([nH]c4ccccc34)[C@@](C(=O)OC)(c3cc4c(cc3OC)N(C)[C@H]3[C@@](O)(C(N)=O)[C@H](O)[C@]5(CC)C=CCN6CC[C@]43[C@@H]65)C2)C1 [VINDESINE]	> 30 µM	> 30 µM	> 30 µM	> 30 µM	> 30 µM	> 30 µM	> 30 µM
CCOc1cc(N)c([N+](=O)[O-])cc1C(=O)NC1CCN(CC2CC=CCC2)CC1 (centres undefined) [CINITAPRIDE]	> 30 µM	22 µM	> 30 µM	> 30 µM	> 30 µM	> 30 µM	–
CCCCCCCCOc1ccccc1C(=O)Nc1ccc(C(=O)OCC[N+](C)(CC)CC)cc1 [OTILONIUM BROMIDE]	29 µM	> 30 µM	16 µM	> 30 µM	20 µM	> 10 µM	1.1 µM
CC(Cc1ccccc1)NCCC(c1ccccc1)c1ccccc1 (centres undefined) [PRENYLAMINE]	> 30 µM	> 30 µM	4.28 µM	> 30 µM	> 30 µM	> 10 µM	> 30 µM
COc1ccc(C(=O)N2CCN(c3ccc4c(c3)CCC(=O)N4)CC2)cc1OC [VESNARINONE]	> 30 µM	> 30 µM	–	> 30 µM	> 30 µM	> 30 µM	> 30 µM
